In the assay the target is ACE-2 (Homo sapiens, UniProt Q9BYF1). In words: Fluorometric ACE-2 inhibition assay with peptide M-2195 as substrate. The following applies: for Ki: ACE-2, M-2195 substrate; for Inhibition: inhibition of ACE-2 activity, M-2195 substrate, class by % inhibition at ~100 μM and IC50. Further details: nucleotides corresponding to the extracellular domain (M1-S740); FLAG; made in house; host or cells: Sf9 insect cells, recombinant baculovirus (transfer vector pA2); enzyme purified from conditioned media. The assay is classed as biochemical. As for the experimental part:
Substrate stock (10 μL of 10× concentration) was added to each well to be tested in blocks of three vertically down the plate. The reaction was monitored on a Spectrafluor Plus (Tecan) at an excitation wavelength of 340 nm and an emission wavelength of 400 nm (+/−35 nm) every 30 seconds for a time period of 10 minutes.
ACE-2 cleaves off the C-terminal lysine from the peptide with a concomitant increase in fluorescence signal.
The assays were performed in 96-well clear-bottom black plates (Costar, 07-200-590). In each well, 0.45 μg (5 pmoles) of ACE-2 is added to 90 μL of an assay solution containing 100 mM TRIS at pH 7.4, 0.1% Tween, and 0.4% DMSO. Substrate stock at 10 μL of 10× concentration is added to each well (for example, 10 μL of 1 mM stock for a final 100 μM concentration). The reaction was monitored on a Spectrafluor Plus (Tecan) at an excitation wavelength of 340 nm and an emission wavelength of 400 nm (+/−35 nm) every 30 seconds up to 10 minutes. All samples were measured in triplicate. […]

The values below come from patent US20030091557A1, “Methods and compositions for modulating ACE-2 activity” (priority 2001, published 2003).

Where a SMILES comes first, the peptide text is derived from it. Bridges are numbered along the chain shown (N, C = ends).

Sequence of ACE-2 (Q9BYF1 18-740): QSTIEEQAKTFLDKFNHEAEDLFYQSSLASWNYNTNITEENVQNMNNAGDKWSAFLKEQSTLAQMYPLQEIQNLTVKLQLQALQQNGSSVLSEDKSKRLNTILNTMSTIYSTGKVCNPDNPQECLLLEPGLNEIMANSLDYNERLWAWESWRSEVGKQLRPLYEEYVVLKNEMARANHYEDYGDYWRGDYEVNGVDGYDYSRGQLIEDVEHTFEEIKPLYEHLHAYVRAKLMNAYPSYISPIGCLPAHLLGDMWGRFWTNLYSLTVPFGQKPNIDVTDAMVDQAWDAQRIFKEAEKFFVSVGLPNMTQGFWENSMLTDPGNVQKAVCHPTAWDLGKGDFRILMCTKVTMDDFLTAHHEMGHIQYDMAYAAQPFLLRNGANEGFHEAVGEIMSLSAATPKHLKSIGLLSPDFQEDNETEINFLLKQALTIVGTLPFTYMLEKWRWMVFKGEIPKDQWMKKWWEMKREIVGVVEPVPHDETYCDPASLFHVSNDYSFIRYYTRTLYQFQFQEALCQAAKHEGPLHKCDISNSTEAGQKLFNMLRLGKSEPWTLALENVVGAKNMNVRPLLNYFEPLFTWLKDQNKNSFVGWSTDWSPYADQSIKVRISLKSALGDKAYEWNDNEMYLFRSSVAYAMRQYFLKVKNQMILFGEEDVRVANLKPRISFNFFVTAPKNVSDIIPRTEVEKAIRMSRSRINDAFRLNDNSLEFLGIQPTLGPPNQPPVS

The Ki is a dissociation constant, usually derived from enzyme kinetics or from competition with a known ligand. Regarding `CSCC[C@@H]1NC(=O)[C@H](Cc2c[nH]c3ccccc23)NC(=O)[C@@H]2CCCN2C(=O)[C@H](CO)NC(=O)[C@H](CCC(N)=O)NC(=O)[C@H](CCCNC(=N)N)NC(=O)[C@H](CCC(N)=O)NC(=O)[C@@H]2CCCN2C(=O)[C@H](CCCCN)NC(=O)[C@@H](NC(=O)[C@H](Cc2c[nH]cn2)NC(=O)[C@H](CC(C)C)NC(=O)[C@H](CCCNC(=N)N)NC(=O)[C@H](CC(=O)O)NC(=O)CNC(C)=O)CSSC[C@@H](C(=O)N[C@@H](CCC(N)=O)C(=O)N[C@@H](Cc2c[nH]cn2)C(=O)N[C@@H](CC(C)C)C(=O)N[C@@H](CC(=O)O)C(=O)N2CCC[C@H]2C(=O)N[C@@H](CCC(=O)O)C(=O)NCC(=O)NCC(=O)NCC(N)=O)NC(=O)[C@H](CCCCN)NC1=O` [DX-512] (Ac-GDRLHCKPQRQSPWMKCQHLDPEGGG-NH2; disulfide 6-17), the Ki is 150 nM and the Inhibition entry is listed as “++++ (signifies very strong inhibition (˜100% inhibition at 100 μM; with IC50 0.15 μM))”.

As to `CC(=O)NCC(=O)N[C@@H](CC(=O)O)C(=O)N[C@@H](CC(C)C)C(=O)N[C@@H](Cc1c[nH]cn1)C(=O)N[C@@H](C)C(=O)N[C@H]1CSSC[C@@H](C(=O)N[C@H](C(=O)N[C@@H](CC(C)C)C(=O)NCC(=O)N[C@@H](CC(=O)O)C(=O)N2CCC[C@H]2C(=O)N[C@@H](CCC(=O)O)C(=O)NCC(=O)NCC(=O)NCC(N)=O)[C@@H](C)O)NC(=O)[C@H](C)NC(=O)[C@H](Cc2c[nH]c3ccccc23)NC(=O)[C@H](Cc2c[nH]c3ccccc23)NC(=O)[C@@H]2CCCN2C(=O)[C@H](CC(=O)O)NC(=O)CNC(=O)[C@H](CCCNC(=N)N)NC(=O)[C@H](C(C)C)NC(=O)[C@@H]2CCCN2C(=O)[C@H](CCCNC(=N)N)NC1=O` [DX-513] (Ac-GDLHACRPVRGDPWWACTLGDPEGGG-NH2; disulfide 6-17), the Ki worked out at 150 nM and the Inhibition entry was “++++ (signifies very strong inhibition (˜100% inhibition at 100 μM; with IC50 0.15 μM))”.

Consider `CC[C@H](C)[C@H](NC(=O)[C@H](CCCNC(=N)N)NC(=O)[C@H](CO)NC(=O)CNC(C)=O)C(=O)NCC(=O)N[C@H]1CSSC[C@@H](C(=O)N[C@@H](CC(N)=O)C(=O)N[C@@H](Cc2c[nH]c3ccccc23)C(=O)N[C@@H](Cc2c[nH]c3ccccc23)C(=O)N[C@@H](C)C(=O)N2CCC[C@H]2C(=O)NCC(=O)N[C@@H](CCC(=O)O)C(=O)NCC(=O)NCC(=O)NCC(N)=O)NC(=O)[C@H](CCCNC(=N)N)NC(=O)[C@H](CO)NC(=O)[C@H](CC(=O)O)NC(=O)[C@H](CCCNC(=N)N)NC1=O` [DX-524] (Ac-GSRIGCRDSRCNWWAPGEGGG-NH2; disulfide 6-11), for which the Inhibition entry is given as “+++ (signifies strong inhibition (˜99% inhibition at ˜100 μM; with IC50 between 0.4-1 μM))”.

As for `CC(=O)NCC(=O)N[C@@H](CO)C(=O)N[C@@H](CCCNC(=N)N)C(=O)NCC(=O)N[C@@H](Cc1ccccc1)C(=O)N[C@H]1CSSC[C@@H](C(=O)N[C@@H](CO)C(=O)N[C@@H](Cc2ccccc2)C(=O)N2CCC[C@H]2C(=O)N[C@@H](C)C(=O)N2CCC[C@H]2C(=O)NCC(=O)N[C@@H](CCC(=O)O)C(=O)NCC(=O)NCC(=O)NCC(N)=O)NC(=O)[C@H](CO)NC(=O)[C@H](CO)NC(=O)[C@H](CC(=O)O)NC(=O)[C@H](CCCNC(=N)N)NC1=O` [DX-525] (Ac-GSRGFCRDSSCSFPAPGEGGG-NH2; disulfide 6-11), the Inhibition result is “+++ (signifies strong inhibition (˜99% inhibition at ˜100 μM; with IC50 between 0.4-1 μM))”.

For `CSCC[C@@H]1NC(=O)[C@H](CCSC)NC(=O)[C@@H]2CCCN2C(=O)[C@H](C)NC(=O)[C@H](Cc2c[nH]c3ccccc23)NC(=O)[C@H](Cc2c[nH]cn2)NC(=O)[C@@H](NC(=O)[C@@H](NC(=O)[C@H](CCC(=O)O)NC(=O)[C@H](Cc2c[nH]c3ccccc23)NC(=O)CNC(=O)[C@H](C)NC(C)=O)C(C)C)CSSC[C@@H](C(=O)N[C@@H](CCCCN)C(=O)N[C@@H](Cc2c[nH]cn2)C(=O)NCC(=O)NCC(=O)N[C@H](C(=O)N[C@@H](CCC(=O)O)C(=O)NCC(=O)NCC(=O)NCC(N)=O)[C@@H](C)O)NC1=O` [DX-529] (Ac-AGWEVCHWAPMMCKHGGTEGGG-NH2; disulfide 6-13), the Inhibition result was “+++ (signifies strong inhibition (˜99% inhibition at ˜100 μM; with IC50 between 0.4-1 μM))”.

On to `CC(=O)N[C@@H](C)C(=O)NCC(=O)N[C@@H](CO)C(=O)N[C@@H](CC(=O)O)C(=O)N[C@@H](Cc1c[nH]c2ccccc12)C(=O)N[C@H]1CSSC[C@@H](C(=O)N[C@@H](Cc2ccccc2)C(=O)N[C@@H](Cc2c[nH]cn2)C(=O)N[C@@H](CCC(N)=O)C(=O)NCC(=O)N[C@H](C(=O)N[C@@H](CCC(=O)O)C(=O)NCC(=O)NCC(=O)NCC(N)=O)[C@@H](C)O)NC(=O)[C@@H]2CCCN2C(=O)[C@H](CC(N)=O)NC(=O)[C@H](CC(N)=O)NC(=O)[C@H](Cc2c[nH]c3ccccc23)NC(=O)[C@H]([C@@H](C)O)NC(=O)CNC1=O` [DX-531] (Ac-AGSDWCGTWNNPCFHQGTEGGG-NH2; disulfide 6-13), for which the Inhibition result is recorded as “+++ (signifies strong inhibition (˜99% inhibition at ˜100 μM; with IC50 between 0.4-1 μM))”.

In the case of `CC(=O)NCC(=O)N[C@@H](CC(=O)O)C(=O)N[C@@H](CCCNC(=N)N)C(=O)N[C@@H](Cc1ccc(O)cc1)C(=O)N[C@@H](CC(C)C)C(=O)N[C@H]1CSSC[C@@H](C(=O)N[C@@H](CC(N)=O)C(=O)N[C@@H](Cc2c[nH]c3ccccc23)C(=O)N[C@@H](Cc2ccccc2)C(=O)N[C@@H](CC(=O)O)C(=O)N2CCC[C@H]2C(=O)N[C@@H](CCC(=O)O)C(=O)NCC(=O)NCC(=O)NCC(N)=O)NC(=O)[C@H](Cc2ccccc2)NC(=O)[C@H](CCCCN)NC(=O)[C@H](Cc2c[nH]c3ccccc23)NC(=O)[C@@H]2CCCN2C(=O)[C@H](CCCCN)NC(=O)[C@H](CC(=O)O)NC(=O)[C@H](CCCNC(=N)N)NC(=O)[C@H](CCC(N)=O)NC(=O)[C@@H]2CCCN2C(=O)[C@H](CC(C)C)NC1=O` [DX-599] (Ac-GDRYLCLPQRDKPWKFCNWFDPEGGG-NH2; disulfide 6-17), the Inhibition result is “++++ (signifies very strong inhibition (˜100% inhibition at 100 μM; with IC50 0.15 μM))”.

With `CC(=O)NCC(=O)N[C@@H](CC(=O)O)C(=O)N[C@@H](Cc1ccc(O)cc1)C(=O)N[C@@H](CO)C(=O)N[C@@H](Cc1c[nH]cn1)C(=O)N[C@H]1CSSC[C@@H](C(=O)N[C@H](C(=O)N[C@@H](Cc2ccc(O)cc2)C(=O)N2CCC[C@H]2C(=O)N[C@@H](CC(=O)O)C(=O)N2CCC[C@H]2C(=O)N[C@@H](CCC(=O)O)C(=O)NCC(=O)NCC(=O)NCC(N)=O)[C@@H](C)O)NC(=O)[C@H](CCCCN)NC(=O)[C@H](Cc2c[nH]c3ccccc23)NC(=O)[C@H](Cc2c[nH]c3ccccc23)NC(=O)[C@@H]2CCCN2C(=O)[C@H](Cc2ccc(O)cc2)NC(=O)[C@H](Cc2ccc(O)cc2)NC(=O)[C@H](CCCNC(=N)N)NC(=O)[C@H](CC(C)C)NC(=O)[C@@H]2CCCN2C(=O)[C@H](CO)NC1=O` [DX-600], the Inhibition entry was “++++ (signifies very strong inhibition (˜100% inhibition at 100 μM; with IC50 0.15 μM))”.
